The data set can be described thus: Molar enthalpy of transition or fusion. Conditions: Adiabatic calorimetry.

Numbers after ± are expanded uncertainties.

Turning to `NC12CC3CC(CC(C3)C1)C2` [tricyclo(3.3.1.1:3,7)decan-1-amine], the “Molar enthalpy of transition or fusion” value is 1.269 ± 0.00287 kcal/mol (Crystal 2) and 0.41 ± 0.00574 kcal/mol (Crystal 3).
